3 compounds from EP1873155A1, “Inhibitors of the HIV integrase enzyme” (PFIZER INC., priority 2004, dated 2005) can be followed below.

One assay concerns the target HIV-1 integrase. Briefly: Integrase strand-transfer scintillation proximity assay. Format: biochemical. The following applies: full-length wild type HIV-1 integrase (SF1), 50 min at 37°C. How it is done:
The annealed product represents preprocessed viral ds-DNA derived from the LTR U5 sequence of the viral genome.
The radiolabeled product was purified using a NENSORB cartridge and stored in stabilized aqueous solution (PerkinElmer).
White, polystyrene, flat-bottom, non-binding surface, 96-well plates were purchased from Corning.
Supernant was discarded and pellet resuspended in 50 mM HEPES pH 7.0, 750 mM NaCl, 5 mM DTT, 1 mM AEBSF and homogenized in a 40 mL Dounce homogenizer for 20 minutes on ice. […] Supernant was discarded and pellet resuspended in 50 mM HEPES pH 7.0, 750 mM NaCl, 25 mM CHAPS, 5 mM DTT, 1 mM AEBSF.
Supernant was then diluted 1:1 with 50 mM HEPES pH 7.0, 25 mM CHAPS, 1 mM DTT, 1 mM AEBSF and loaded onto a Q-Sepharose column pre-equilibrated with 50 mM HEPES, pH 7.0, 375 mM NaCl, 25 mM CHAPS, 1 mM DTT, 1 mM AEBSF. The flow through peak was collected and NaCl diluted to 0.1 M with 50 mM HEPES pH 7.0, 25 mM CHAPS, 1 mM DTT, 0.5 mM AEBSF and loaded onto a SP-Sepharose column pre-equilibrated with 50 mM HEPES pH 7.0, 100 mM NaCl, 25 mM CHAPS, 1 mM DTT, 0.5 mM AEBSF. After washing the column with the equilibration buffer, a 100 to 400 mM NaCl gradient was run. The eluted integrase was concentrated and run on a S-300 gel diffusion column using 50 mM HEPES pH 7.0, 500 mM NaCl, 25 mM CHAPS, 1 mM DTT, 0.5 mM AEBSF. […]
A general note: Scintillation proximity formats need no separation of bound from free tracer.

The next assay concerns RF strain of HIV-1. Briefly: HIV-1 cell protection assay (XTT dye reduction). The format is cell-based. The following applies: Human immunodeficiency virus 1, CEM-SS, 144 h, CEM-SS cells infected with HIV-1 RF, six days, XTT formazan; read-out: EC50. As for the experimental part: Example 61: HIV-1 Cell Protection Assay
The antiviral activities of potential modulator compounds (test compounds) were determined in HIV-1 cell protection assays using the RF strain of HIV-1, CEM-SS cells, and the XTT dye reduction method (Weislow, O.S. et al., J. Natl. Cancer Inst. 81: 577-586 (1989)). Subject cells were infected with HIV-1 RF virus at an moi of 0.025 to 0.819 or mock infected with medium only and added at 2 x 10^4 cells per well into 96 well plates containing half-log dilutions of test compounds. Six days later, 50 µl of XTT solution (1 mg/ml XTT tetrazolium and […] phenazine methosulfate) were added to the wells and the plates were reincubated for four hours. Viability, as determined by the amount of XTT formazan produced, was quantified spectrophotometrically by absorbance at 450 nm.
Data from CPE assays were expressed as the percent of formazan produced in compound-treated cells compared to formazan produced in wells of uninfected, compound-free cells. […] The therapeutic index was calculated by dividing the cytotoxicity (CC50) by the antiviral activity (EC50).
Background: Formazan colour is commonly taken as a measure of viable cells.

Usually IC50 stands for the concentration that inhibits the measured activity by half. A higher IC50 goes with a need for much substance. As to “1-[({[(4R)-2,2-dimethyl-1,3-dioxolan-4-yl]methyl}amino)meth yl]-3-(4-fluorobenzyl)-7-hydroxy-3,7-dihydro-6H-pyrrolo[2,3-c]-1,7-naphthyridin-6-one [Example 35]”, on HIV-1 integrase, 45 nM corresponded to half-maximal inhibition (IC50). As for “(3R)-1-{[3-(4-fluorobenzyl)-7-hydroxy-6-oxo-6,7-dihydro-3H-pyrrolo[2,3-c]-1,7-naphthyridin-1-yl]methyl)-N,N-dimethylpyrrolidine-3-carboxamide [Example 17]”, half-maximal inhibition against HIV-1 integrase (IC50) was put at 9 nM.

The EC50 is the concentration needed to bring the measured effect to its halfway point. For `O=C1NC[C@@H]2CCN(Cc3cn(Cc4ccc(F)cc4)c4cnc5c(=O)n(O)ccc5c34)C[C@H]12` [Example 56, 3-(4-fluorobenzyl)-7-hydroxy-1-{[(3aR,7aR)-3-oxooctahydro-5H-pyrrolo[3,4-c]pyridin-5-yl]methyl}-3,7-dihydro-6H-pyrrolo[2,3-c]-1,7-naphthyridin-6-one], the EC50 with RF strain of HIV-1 amounted to 14 nM.
